Assay results: US9295630B2, “Vitamin C complexes” (CENTRE NATIONAL DE LA RECHERCHE SCIENTIFIQUE, priority 2012, dated 2016)
Read-outs that look alike come from different tables or passages of the source.

Columns and labels:
Format in all cases: cell-based
explants of human skin = assay: General morphology / acanthosis of human skin explants (Masson's trichrome staining); conditions: for dermal stimulation / epidermal stimulation: topical, D10, relative to control No. 0
Procedure: (§1) Explants of human skin with a diameter of about […], obtained from surgical waste from cosmetic surgery and more particularly from abdominoplasty of women about thirty years of age, are used. The human skin is kept alive in a usual nutrient medium at 37° C. in humid atmosphere, enriched with 5% CO2, for ten days.
(§2) The explants of human skin are treated using a gel according to the invention comprising the VitC-SQ complex or conjugate according to the invention obtained in example 1a formulated in squalene as described in example 3 to obtain compositions comprising 1 wt % and 3 wt % respectively, expressed as weight of vitamin C active ingredient relative to the total weight of the composition. To obtain values of 1% and 3% respectively, expressed as weight of vitamin C, the concentration of the VitC-SQ complex is adjusted accordingly.
(§3) These two active ingredients are used at a concentration of 1 wt % and 3 wt %, expressed as weight of vitamin C active ingredient relative to the total weight of the composition.
(§4) Each of the compositions tested is applied topically, at a rate of 2 mg per explant, on the explants of human skin using a spatula on day zero (DO), then at 1 day (D1), at 3 days (D3), at 6 days (D6) and finally at 8 days (D8).
(§5) On the tenth day, the explants treated with each of the compositions are taken and are submitted to the same conditions as the explants of control No. 0.
After 48 hours of fixation in ordinary Bouin, the samples are dehydrated and impregnated with paraffin using a Leica 1020 automatic dehydrator. Then they are made into a block according to procedure MO-H-153 using a Leica EG 1160 coating station.
5-μm sections are prepared using a Minot type microtome, Leica RM 2125, and are glued on superfrost silanized glass histology slides.
Microscopic observations are performed in light microscopy, using a Leica microscope of the Orthoplan type, with x 25 and x 40 objectives. The images are recorded with a Sony DXC 390P tri CCD camera and are stored using Leica IM1000 data archiving software.
Acanthosis of the skin, and more generally observation of the general morphology is carried out on sections in paraffin after staining with Masson's trichrome, Goldner's variant, according to procedure MO-H-157.

type III collagen = assay: Expression of type III collagen in human skin explants (immunolabeling); conditions: gel at 3 wt % as vitamin C, topical, D10, relative to control No. 0
Procedure: (§6) For this assessment, only certain of the explants of human skin described above are used. More particularly, they are untreated explants (control No. 0) and explants treated with VitC-SQ according to the invention at 3 wt %, with free vitamin C at 3 wt % (control No. 1) and with VitC-palm at 3 wt % (control No. 2), expressed as weight of vitamin C active ingredient relative to the total weight of the composition.
(§7) The microscopic observations are carried out in light microscopy, using a Leica microscope, type DMLB, with x 40 objective. The images were recorded with an Olympus DP72 camera, using Olympus Cell^D acquisition and archiving software.
Regarding the labeling of type III collagen, the latter is labeled on sections in paraffin (fixation with formol) with a goat anti-human collagen III polyclonal antibody (SBA ref: 1330-01), at 1/50th overnight at room temperature using a Vectastain RTU Universal VECTOR avidin/biotin amplifier system, detected in diaminobenzidine (DAB) with the nuclei counterstained with Masson's hemalum.

type I collagen = assay: Expression of type I collagen in human skin explants (immunolabeling); conditions: gel at 3 wt % as vitamin C, topical, D10, relative to control No. 0
Procedure: as §6, §7
Type I collagen is labeled on frozen sections with a rabbit anti-human collagen I antibody (Monosan ref PS047, polyclonal), at 1/800th for 1 hour at room temperature with a biotin/streptavidin amplifier system, detected by fluorescence (FITC caltag SA 1001). The nuclei were counterstained with propidium iodide.

neutral GAGs = assay: Expression of neutral GAGs in human skin explants (alcian blue/PAS staining); conditions: topical, D10, relative to control No. 0
Procedure: as §1, §2, §3, §4, §5
(§8) Neutral GAGs, reservoirs of the growth factors near the dermal-epidermal junction, and acid GAGs, essentially hyaluronic acid, are examined on paraffin sections after staining with alcian blue/PAS (Mowry staining)

acid GAGs = assay: Expression of acid GAGs in human skin explants (alcian blue/PAS staining); conditions: topical, D10, relative to control No. 0
Procedure: as §1, §2, §3, §4, §5, §8

[1] = test system: CCD34SK human fibroblasts; assay: Test of cellular viability (MTT assay); conditions: for IC50: 4 h incubation then 48 h, read-out: IC50 (loss of 50% in cellular viability)
Procedure: 10 000 cells of CCD34SK human fibroblasts per well were seeded in a 96-well plate.
The test products are added to the wells in different concentrations. After 4 h of incubation, the culture medium is replaced with new biological medium and the cells are incubated for 48h at 37° C. and 5% CO2.
Then, the culture medium is removed by inverting and 100 μL, of PBS/well with MTT at a concentration of 0.5 mg/ml is added. The plate is put back in the incubator for 2 h at 37° C. and 5% CO2. In order to dissolve the dark blue crystals of formazan that have formed, 100 μL of a solution of SDS (sodium dodecyl sulfate) is added to each well and then the plate is incubated again for 12 h at 37° C. and 5% CO2.
At the end of the 12 h, spectrophotometric measurements are carried out on an ELISA plate reader at a wavelength of 570 nm. The percentage viability of the cells in the presence of the test molecules is then calculated from the following formula: (mean OD of the treated cells—OD of control with medium only/mean OD of the control cells (100% viability)—OD of control with medium only)×100±standard deviation; or presented in the form of curves plotting the evolution of absorbance as a function of time.
The IC50 values (“inhibitory concentration 50%” or the concentration that inhibits growth of 50% of the cells) then correspond to a product concentration tested generating a loss of 50% in cellular viability (see Table below).

Structure (SMILES)	dermal stimulation (explants of human skin; gel at 1 wt % as vitamin C)	epidermal stimulation (explants of human skin; gel at 1 wt % as vitamin C)	dermal stimulation (explants of human skin; gel at 3 wt % as vitamin C)	epidermal stimulation (explants of human skin; gel at 3 wt % as vitamin C)	expression of type III collagen (type III collagen)	expression of type I collagen (type I collagen)	overexpression of neutral GAGs (neutral GAGs; gel at 1 wt % as vitamin C)	overexpression of neutral GAGs (neutral GAGs; gel at 3 wt % as vitamin C)	overexpression of epidermal acid GAGs (acid GAGs; gel at 1 wt % as vitamin C)	overexpression of epidermal acid GAGs (acid GAGs; gel at 3 wt % as vitamin C)	IC50 [1] [µM]	dermal and epidermal stimulation compared with VitC-Palm (explants of human skin; at equivalent dose of vitamin C)	toxicity relative to VitC-palm [1]	IC50 ([1]; Fibroblast) [µM]	effect on skin explants (overall) (explants of human skin; dose less than or equal to 3 wt % as vitamin C)
CCCCCCCCCCCCCCCC(=O)OC[C@H](O)[C@H]1OC(=O)C(O)=C1O [VitC-palm, 6-ascorbyl palmitate]	No dermal stimulation	No epidermal stimulation	Moderate dermal stimulation	No epidermal stimulation	Very slight overexpression of type III	No overexpression of type I collagen	Slight overexpression of neutral GAGs	Very moderate overexpression of neutral	No overexpression of epidermal acid	No overexpression of epidermal acid	250				
CC(C)=CCCC(C)=CCCC(C)=CCCC=C(C)CCC=C(C)CCC(=O)OC[C@H](O)[C@H]1OC(=O)C(O)=C1O [VitC-SQ, 6-O-[4,8,13,17,21-pentamethyl-docosa-4,8,12,16,20-pentaenoyl] ascorbic acid]	Moderate dermal stimulation	Slight epidermal stimulation	Fairly definite dermal stimulation	Definite epidermal stimulation	Slight overexpression of type III collagen	Slight underexpression of type I collagen	Slight overexpression of neutral GAGs	Definite overexpression of neutral GAGs	No overexpression of the epidermal acid GAGs	No overexpression of epidermal acid		greater than VitC-Palm	half as toxic as VitC-palm	600	
O=C1OC(C(O)CO)C(O)=C1O (centres unmarked) [Free vitamin C, 5-(1,2-dihydroxy-ethyl)-3,4-dihydroxy-5H-furan-2-one]	No dermal stimulation	No epidermal stimulation	Moderate dermal stimulation	No epidermal stimulation	No overexpression of type III collagen	No overexpression of type I collagen	No overexpression of neutral GAGs	No overexpression of neutral GAGs	No overexpression of epidermal acid	No overexpression of epidermal acid					no effect
